Measured values as given in patent US8674109B2, “Pesticidal compositions” (Dow AgroSciences, LLC., priority 2009, dated 2014).

What was measured:
Type in all cases: in vivo
[1] = system: corn earworm (CEW; Helicoverpa zea: Lepidoptera); assay: Insecticidal test for corn earworm, 128-well diet tray assay
How it was run: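 Second-instar larvae, three to five per well, placed on artificial diet treated with 50 μg/cm^2 compound applied in 90:10 acetone-water and dried. Held six days at 25° C., 14:10 light-dark. Percent mortality scored per well and averaged over eight wells.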

[2] = system: green peach aphid (Myzus persicae); assay: Insecticidal test for green peach aphid in foliar spray assay on cabbage seedlings
How it was run: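 Cabbage seedlings carrying 20-50 aphids (adults and nymphs) were sprayed to runoff with compound at 200 ppm in acetone/methanol diluted in 0.025% Tween 20, with four pots per treatment. After three days at about 25 °C and 40% RH, live aphids were counted. Percent control was Abbott-corrected against solvent-check plants.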

[3] = system: beet armyworm (BAW; Spodoptera exigua: Lepidoptera); assay: Insecticidal test for beet armyworm, 128-well diet tray assay
How it was run: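 Three to five second-instar larvae per well fed on artificial diet surface-treated with 50 μg/cm^2 compound (applied in 90:10 acetone-water, dried). Trays were held six days at 25 °C, 14:10 light-dark. Percent mortality was averaged across eight wells.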

Row | SMILES | % Mortality CEW 50 μg/cm^2 [1] | % Mortality GPA 200 ppm [2] | % Mortality BAW 50 μg/cm^2 [3]
1 | CN(C)CC#CC(C)(C)OC(=O)Nc1ccc(-c2ncn(-c3ccc(OC(F)(F)F)cc3)n2)cc1 [Compound 99] | B (Less than 50) | B (Less than 80) | B (Less than 50)
2 | O=C(Nc1ccc(-c2ncn(-c3ccc(OC(F)(F)F)cc3)n2)cc1)OC1CCc2ccccc2O1 (stereo not drawn) [Compound 95] | A (50-100) | B (Less than 80) | A (50-100)
3 | CC(OC(=O)Nc1ccc(-c2ncn(-c3ccc(OC(F)(F)F)cc3)n2)cc1)c1cccc(Cl)n1 (stereo not drawn) [Compound 120] | A (50-100) | B (Less than 80) | A (50-100)
4 | CC(OC(=O)Nc1ccc(-c2ncn(-c3ccc(OC(F)(F)F)cc3)n2)cc1)c1ccc(F)cc1 (stereo not drawn) [Compound 84] | A (50-100) | B (Less than 80) | A (50-100)
5 | O=C(Nc1ccc(-c2ncn(-c3ccc(OC(F)(F)F)cc3)n2)cc1)OCc1c(Cl)cccc1Cl [Compound 111] | A (50-100) | B (Less than 80) | B (Less than 50)
6 | CC(OC(=S)Nc1ccc(-c2ncn(-c3ccc(OC(F)(F)F)cc3)n2)cc1)c1ccc(C(F)(F)F)nc1 (stereo not drawn) [Compound 133, O-1-(6-(trifluoromethyl)pyridin-3-yl)ethyl 4-(1-(4-(trifluoromethoxy)phenyl)-1H-1,2,4-triazol-3-yl)phenylcarbamothioate] | A (50-100) | B (Less than 80) | A (50-100)
7 | C#CC(C)(C)OC(=O)Nc1ccc(-c2ncn(-c3ccc(OC(F)(F)F)cc3)n2)cc1 [Compound 12, {4-[1-(4-trifluoromethoxyphenyl)-1H-[1,2,4]triazol-3-yl]-phenyl}-carbamic acid 1,1-dimethyl-prop-2-ynyl ester] | A (50-100) | B (Less than 80) | A (50-100)
8 | CC(OC(=O)Nc1ccc(-c2ncn(-c3ccc(OC(F)(F)F)cc3)n2)cc1)c1ccc(C(F)(F)F)cc1 (stereo not drawn) [Compound 42] | A (50-100) | B (Less than 80) | A (50-100)
9 | CC(OC(=O)Nc1ccc(-c2ncn(-c3ccc(OC(F)(F)F)cc3)n2)cc1)c1ccccn1 (stereo not drawn) [Compound 46] | A (50-100) | B (Less than 80) | A (50-100)
10 | CCCCC(OC(=O)Nc1ccc(-c2ncn(-c3ccc(OC(F)(F)F)cc3)n2)cc1)c1ccccc1 (stereo not drawn) [Compound 71] | A (50-100) | B (Less than 80) | A (50-100)
11 | CC(OC(=O)Nc1ccc(-c2ncn(-c3ccc(OC(F)(F)F)cc3)n2)cc1)c1ccccc1C(F)(F)F (stereo not drawn) [Compound 69] | A (50-100) | B (Less than 80) | A (50-100)
12 | CC1(OC(=O)Nc2ccc(-c3ncn(-c4ccc(OC(F)(F)F)cc4)n3)cc2)CCCCC1 [Compound 4] | B (Less than 50) | B (Less than 80) | B (Less than 50)
13 | CCCCCC(CC)OC(=O)Nc1ccc(-c2ncn(-c3ccc(OC(F)(F)F)cc3)n2)cc1 (stereo not drawn) [Compound 101] | A (50-100) | B (Less than 80) | A (50-100)
14 | Cc1ccc(C(C)OC(=O)Nc2ccc(-c3ncn(-c4ccc(OC(F)(F)F)cc4)n3)cc2)cc1 (stereo not drawn) [Compound 91] | A (50-100) | B (Less than 80) | A (50-100)
15 | CC(C)OC(=O)Nc1ccc(-c2ncn(-c3ccc(OC(F)(F)C(F)(F)F)cc3)n2)cc1 [Compound 10] | B (Less than 50) | B (Less than 80) | A (50-100)
16 | CC(C)(C)OC(=O)Nc1ccc(-c2ncn(-c3ccc(OC(F)(F)F)cc3)n2)cc1 [Compound 25] | A (50-100) | B (Less than 80) | A (50-100)
17 | CC(OC(=O)Nc1ccc(-c2ncn(-c3ccc(OC(F)(F)F)cc3)n2)cc1)c1cccs1 (stereo not drawn) [Compound 76] | A (50-100) | B (Less than 80) | A (50-100)
18 | CCC#CC(C)(C)OC(=O)Nc1ccc(-c2ncn(-c3ccc(OC(F)(F)F)cc3)n2)cc1 [Compound 96] | A (50-100) | B (Less than 80) | A (50-100)
19 | CCC(OC(=O)Nc1ccc(-c2ncn(-c3ccc(OC(F)(F)F)cc3)n2)cc1)c1cccc(Br)c1 (stereo not drawn) [Compound 63] | A (50-100) | B (Less than 80) | A (50-100)
20 | Cc1cc(Cl)ccc1OC(=O)Nc1ccc(-c2ncn(-c3ccc(OC(F)(F)F)cc3)n2)cc1 [Compound 128] | A (50-100) | B (Less than 80) | A (50-100)
21 | CCC(CC)OC(=O)Nc1ccc(-c2ncn(-c3ccc(OC(F)(F)F)cc3)n2)cc1 [Compound 113] | A (50-100) | B (Less than 80) | A (50-100)
